Results as given in ChEMBL document CHEMBL1201862, “PubChem BioAssay data set” (2004).
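Results reflect a 48-hour exposure of cells in 96-well plates to compound at five concentrations. Here, GI50 denotes the concentration required for 50% inhibition of growth.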 The source made the active and inactive calls. Cut-off read from the data, not from the text of the source: active = GI50 up to about 1.1 µM and inactive = higher.

How the values were obtained:
Test in all cases: NCI anticancer screen, dose series, 48 h
NCI-H226 = test system: NCI-H226
UACC-257 = test system: UACC-257
U-251 = test system: U-251
HOP-62 = test system: HOP-62
NCI-H522 = test system: NCI-H522
KM12 = test system: KM12
SNB-19 = test system: SNB-19
SF-539 = test system: SF-539
786-0 = test system: 786-0
SK-MEL-2 = test system: SK-MEL-2
CAKI-1 = test system: CAKI-1
SN12C = test system: SN12C
OVCAR-3 = test system: OVCAR-3
A498 = test system: A498
SW-620 = test system: SW-620

Structure (SMILES) | GI50 (NCI-H226) | GI50 (UACC-257) | GI50 (U-251) | GI50 (HOP-62) | GI50 (NCI-H522) | GI50 (KM12) | GI50 (SNB-19) | GI50 (SF-539) | GI50 (786-0) | GI50 (SK-MEL-2) | GI50 (CAKI-1) | GI50 (SN12C) | GI50 (OVCAR-3) | GI50 (A498) | GI50 (SW-620)
CN(C)c1ccc(C(=C2C=CC(=[N+](C)C)C=C2)c2ccc(N(C)C)cc2)cc1 [GENTIAN VIOLET] | 0.179 µM (active) | 0.176 µM (active) | 0.0354 µM (active) | 0.375 µM (active) | 0.298 µM (active) | 0.0942 µM (active) | 0.347 µM (active) | 0.258 µM (active) | 0.0923 µM (active) | 0.207 µM (active) | 0.34 µM (active) | 0.21 µM (active) |  |  | 
CC1(C)OCN(c2ccc(S(N)(=O)=O)cc2)Cn2c1nc1ccccc12 | > 100 µM (inactive) | > 100 µM (inactive) | > 100 µM (inactive) | > 100 µM (inactive) | > 100 µM (inactive) | > 100 µM (inactive) | > 100 µM (inactive) | > 100 µM (inactive) | > 100 µM (inactive) | > 100 µM (inactive) |  | > 100 µM (inactive) | > 100 µM (inactive) | > 100 µM (inactive) | > 100 µM (inactive)
Cc1ccc(/C=C/C(=O)c2sc(C(N)=S)nc2C)cc1 | > 100 µM (inactive) | > 100 µM (inactive) | > 100 µM (inactive) | > 100 µM (inactive) | > 100 µM (inactive) | > 100 µM (inactive) |  | > 100 µM (inactive) | > 100 µM (inactive) | > 100 µM (inactive) | > 100 µM (inactive) | > 100 µM (inactive) | > 100 µM (inactive) | > 100 µM (inactive) | > 100 µM (inactive)
C=CC(=O)N1C/C(=C\c2ccc(Cl)c(Cl)c2)C(=O)/C(=C/c2ccc(Cl)c(Cl)c2)C1 | 1.25 µM (inactive) | 0.474 µM (active) | 0.0226 µM (active) | 0.264 µM (active) | 0.149 µM (active) | 0.237 µM (active) |  | 0.181 µM (active) | 0.0579 µM (active) | 0.42 µM (active) | 0.244 µM (active) | 0.155 µM (active) | 0.0865 µM (active) | 0.63 µM (active) | 0.0607 µM (active)
Oc1ccc2c(O)cc(-c3ccccc3)nc2c1 | 65.3 µM (inactive) | 21.7 µM (inactive) | 31.3 µM (inactive) | 28.2 µM (inactive) | 27 µM (inactive) | 22.2 µM (inactive) | 32.4 µM (inactive) | 37.2 µM (inactive) | 31.2 µM (inactive) | 31.7 µM (inactive) | 24.4 µM (inactive) | 24.3 µM (inactive) |  | 32.1 µM (inactive) | 16.4 µM (inactive)
Cc1ccc(C(c2c(O)c3ccccc3n(-c3ccccc3)c2=O)c2c(O)c3ccccc3n(-c3ccccc3)c2=O)cc1 | > 100 µM (inactive) |  | > 100 µM (inactive) | > 100 µM (inactive) | > 100 µM (inactive) | > 100 µM (inactive) | > 100 µM (inactive) | > 100 µM (inactive) | 38.1 µM (inactive) | > 100 µM (inactive) | > 100 µM (inactive) | > 100 µM (inactive) | > 100 µM (inactive) |  | > 100 µM (inactive)
CN/N=C(\C(=O)Nc1ccc([N+](=O)[O-])cc1[N+](=O)[O-])C1NC(=O)NC1=O (stereo not given) | > 100 µM (inactive) | > 100 µM (inactive) | 27.9 µM (inactive) | > 100 µM (inactive) |  | > 100 µM (inactive) | > 100 µM (inactive) | > 100 µM (inactive) | > 100 µM (inactive) | > 100 µM (inactive) | > 100 µM (inactive) | > 100 µM (inactive) | > 100 µM (inactive) | > 100 µM (inactive) | 40.3 µM (inactive)
CC(C)(C)C(C#N)(C#N)c1ccc(C(C#N)(C#N)C(C)(C)C)nn1 |  | > 100 µM (inactive) |  | > 100 µM (inactive) | > 100 µM (inactive) | > 100 µM (inactive) | 63.4 µM (inactive) | > 100 µM (inactive) | 74 µM (inactive) | > 100 µM (inactive) | 83 µM (inactive) | > 100 µM (inactive) | > 100 µM (inactive) |  | > 100 µM (inactive)
COc1ccc(CNc2nc3c(NC(C)=O)cc(C(F)(F)F)cc3nc2-c2ccccc2)cc1OC |  | > 100 µM (inactive) | 93.1 µM (inactive) | 42.1 µM (inactive) | 2.69 µM (inactive) | > 100 µM (inactive) | 45.6 µM (inactive) | 25.2 µM (inactive) | 37.1 µM (inactive) | 57.7 µM (inactive) | 31.6 µM (inactive) | > 100 µM (inactive) | 93.1 µM (inactive) | > 100 µM (inactive) | 77.3 µM (inactive)
Cc1ccc(S(=O)OC2C3CC4CC(C3)CC2C4)cc1 (stereo not given) | > 100 µM (inactive) | > 100 µM (inactive) | > 100 µM (inactive) | > 100 µM (inactive) | > 100 µM (inactive) | > 100 µM (inactive) | > 100 µM (inactive) | > 100 µM (inactive) | > 100 µM (inactive) |  | > 100 µM (inactive) | > 100 µM (inactive) | > 100 µM (inactive) | > 100 µM (inactive) | > 100 µM (inactive)
